Source: patent US6740662B1, “Naphthyridine derivatives” (Yamanouchi Pharmaceutical Co., Ltd., priority 1999, dated 2004)

What was measured:
[1] = Oral absorbability and pharmacokinetic profile evaluation test using type IV PDE inhibitory activity as the index; format: in vivo; conditions: orally administered to male Fisher rat at 3 mg/kg; plasma type IV PDE inhibitory activity as index; in comparison with a comparative compound
Procedure: Test Example 3. Oral absorbability and pharmacokinetic profile evaluation test using type IV PDE inhibitory activity as the index
The following assay was carried out in order to evaluate oral absorbability and pharmacokinetic profiles of the type IV PDE-inhibiting compounds of the invention.
1) Each test compound suspended in purified water containing 0.5% methyl cellulose was orally administered to a seven-week-old male Fisher rat at a dose of 3 mg/kg. In the control group, a solvent (0.5% methyl cellulose in purified water, 3 ml/kg) was administered in the same manner. After the oral administration, blood samples were periodically collected in the presence of heparin from the caudal vein of each rat under ether anesthesia, and plasma was prepared in the usual way.
2) The plasma prepared from each rat administered with the test compound or solvent was added to the type IV PDE measuring system shown in the above Test Example 1 so as to be a final concentration of 0.1%, and the type IV PDE inhibitory activity was measured.

[2] = test system: P450 drug metabolizing enzyme present in the liver microsome; assay: In vitro drug metabolism test using liver microsome; format: in vitro ADME; conditions: human and rat liver microsome, test compound 20 ng/ml, 37° C., 10, 20 and 30 minutes, residual ratio
Procedure: 1) Human and rat liver microsome suspension (human microsome: Xenotech, rat microsome: Charles River) was diluted with 100 mM Na-K phosphate buffer (pH 7.4) to a protein concentration of 0.5 mg/ml. To a 100 μl portion of this suspension were added 2 μl of a test compound solution (a 10 μg/ml acetonitrile solution), 500 μl of 200 mM Na-K phosphate buffer (pH 7.4), 50 μl of 1 mM EDTA-NaOH (pH 7.4) and 200 μl of purified water, thereby preparing a substrate solution (concentration in the reaction solution: liver microsome (as the protein content) 0.05 mg/ml, test compound 20 ng/ml, 100 mM Na-K phosphate buffer, 0.1 mM EDTA-NaOH).
2) An NADPH production system was prepared by mixing 42 mg of NADP, 5 ml of 100 mM […] (G6P) and 5 ml of 100 mM MgCl2, and adding 57 μl of G6P dehydrogenase (about 1750 U/5 mg/ml) to the mixture. This was heated at 37° C. for 5 minutes and then ice-cooled until its use.
3) A 900 μl portion of the substrate solution was pre-incubated at 37° C. for 5 minutes, and then 100 μl of the NADPH production system was added thereto, following by reaction at 37° C. for 10, 20 and 30 minutes. After termination of the reaction by adding 2 ml of ethyl acetate, the whole was ice-cooled. In this connection, a control sample was prepared by adding 100 μl of the NADPH production system after adding 2 ml of ethyl acetate (0 minute reaction).
4) To the reaction solution was added 100 μl of an internal standard substance having a predetermined concentration (an acetonitrile solution), 1 ml of 0.5 M phosphoric acid and 2 ml of ethyl acetate, followed by shaking for 10 minutes. After 10 minutes of centrifugation at 2,500 rpm, the ethyl acetate layer was separated and evaporated to dryness, and the residue was dissolved in 100 μl of an HPLC mobile phase solvent. The test compound was eluted after about 12 minutes, and the internal standard substance after about 16 minutes, under the following conditions. (HPLC measuring conditions mobile phase: acetonitrile/20 mM ammonium acetate=2:3 (v/v), column: Discovery RP Amide C16, 4.6×35 mm (SUPELCO), flow rate: 0.8 ml/min., detection: UV 286 nm)
5) A ratio (residual ratio) of the peak height ratio after 10, 20 or 30 minutes of the reaction to the peak height ratio of each test compound in the control (peak height ratio to the internal standard substance) was calculated.

melting point: 234 to 238 °C | metabolism by the P450 drug metabolizing enzyme present in the liver microsome [2]: hardly metabolized
Compound: CCn1c(=O)c(CCC(=O)O)c(-c2cccc(Cl)c2)c2ccc(C=NO)nc21 [Example 43, 3-[4-(3-chlorophenyl)-1-ethyl-7-hydroxyiminomethyl-2-oxo-1,2-dihydro-1,8-naphthyridin-3-yl]propanoic acid]
oral absorbability and metabolic stability [1]: good oral absorbability and metabolic stability
